Results taken from ChEMBL document CHEMBL3885881, “DrugMatrix”.

Organism: Rattus norvegicus
Experiment: DrugMatrix - Regimen: Daily Repeat
Assay type: toxicity, organism-based, Sprague-Dawley
Design: regimen Daily Repeat, gender Male, age 6-8 weeks
Details: in vivo, po, route oral GAVAGE, […]; for ABSOLUTE BASOPHIL / ABSOLUTE EOSINOPHIL / ABSOLUTE LYMPHOCYTE / ABSOLUTE MONOCYTE / ABSOLUTE SEGMENTED NEUTROPHIL / BASOPHIL / EOSINOPHIL / ERYTHROCYTE COUNT / HEMATOCRIT / HEMOGLOBIN / LEUKOCYTE COUNT / LYMPHOCYTE / MEAN CORPUSCULAR HEMOGLOBIN / MEAN CORPUSCULAR HEMOGLOBIN CONCENTRATION / MEAN CORPUSCULAR VOLUME / MONOCYTE / NEUTROPHIL / NUCLEATED RED BLOOD CELLS / PLATELET COUNT: tissue Blood; for ALANINE AMINOTRANSFERASE / ALKALINE PHOSPHATASE / ASPARTATE AMINOTRANSFERASE / BLOOD UREA NITROGEN / CARBON DIOXIDE / CHLORIDE / CHOLESTEROL / CREATINE PHOSPHOKINASE / CREATININE / GLUCOSE / LACTATE DEHYDROGENASE / LIPASE / PHOSPHORUS / POTASSIUM / SODIUM / TOTAL BILIRUBIN / TOTAL PROTEIN / URIC ACID: tissue Plasma
[1] = 0 mg/kg, 72 h, dose level Control, time 3 day
[2] = 0 mg/kg, 120 h, dose level Control, time 5 day
[3] = 36 mg/kg, 72 h, dose level Low, time 3 day

Q: With `c1ccc2c(c1)Nc1ccccc1S2` [PHENOTHIAZINE] as the compound, how does the “ABSOLUTE BASOPHIL” value [1] read?
A: 0 CELLS/uL

Q: What about the “ABSOLUTE EOSINOPHIL” value [1] of the same compound?
A: 0 CELLS/uL

Q: And the “ABSOLUTE LYMPHOCYTE” value [1]?
A: 6275.67 CELLS/uL

Q: What about the “ABSOLUTE MONOCYTE” value [1] of the same compound?
A: 40.67 CELLS/uL

Q: And the “ABSOLUTE SEGMENTED NEUTROPHIL” value [1]?
A: 633.67 CELLS/uL

Q: And the BASOPHIL [1]?
A: 0%

Q: And the EOSINOPHIL [1]?
A: 0%

Q: And the “ERYTHROCYTE COUNT” value [1]?
A: 5.2 x10E6/uL

Q: And the HEMATOCRIT [1]?
A: 32.78%

Q: What about the HEMOGLOBIN [1] of the same compound?
A: 12.98 G/DL

Q: And the “LEUKOCYTE COUNT” value [1]?
A: 6.95 x10E3/uL

Q: What about the LYMPHOCYTE [1] of the same compound?
A: 90.17%

Q: And the “MEAN CORPUSCULAR HEMOGLOBIN” value [1]?
A: 24.97 pg

Q: And the “MEAN CORPUSCULAR HEMOGLOBIN CONCENTRATION” value [1]?
A: 39.62 G/DL

Q: And the “MEAN CORPUSCULAR VOLUME” value [1]?
A: 63.03 fL

Q: And the MONOCYTE [1]?
A: 0.67%

Q: And the NEUTROPHIL [1]?
A: 9.17%

Q: And the “NUCLEATED RED BLOOD CELLS” value [1]?
A: 0 /100WBC

Q: And the “PLATELET COUNT” value [1]?
A: 1082.83 x10E3/uL

Q: What about the “ALANINE AMINOTRANSFERASE” value [1] of the same compound?
A: 69.67 u/L

Q: And the “ALKALINE PHOSPHATASE” value [1]?
A: 430.5 u/L

Q: And the “ASPARTATE AMINOTRANSFERASE” value [1]?
A: 90.83 u/L

Q: And the “BLOOD UREA NITROGEN” value [1]?
A: 13 mg/dL

Q: What about the “CARBON DIOXIDE” value [1] of the same compound?
A: 33 mmol/L

Q: What about the CHLORIDE [1] of the same compound?
A: 99.17 MEQ/L

Q: And the CHOLESTEROL [1]?
A: 70.5 mg/dL

Q: What about the “CREATINE PHOSPHOKINASE” value [1] of the same compound?
A: 253.33 u/L

Q: And the CREATININE [1]?
A: 0.13 mg/dL

Q: What about the GLUCOSE [1] of the same compound?
A: 157.17 mg/dL

Q: What about the “LACTATE DEHYDROGENASE” value [1] of the same compound?
A: 85 u/L

Q: What about the LIPASE [1] of the same compound?
A: 10 u/L

Q: And the PHOSPHORUS [1]?
A: 10.2 mg/dL

Q: What about the POTASSIUM [1] of the same compound?
A: 5.78 MEQ/L

Q: And the SODIUM [1]?
A: 144.12 MEQ/L

Q: And the “TOTAL BILIRUBIN” value [1]?
A: 0.2 mg/dL

Q: What about the “TOTAL PROTEIN” value [1] of the same compound?
A: 5.8 G/DL

Q: What about the “URIC ACID” value [1] of the same compound?
A: 0.8 mg/dL

Q: What about the “ABSOLUTE BASOPHIL” value [2] of the same compound?
A: 0 CELLS/uL

Q: What about the “ABSOLUTE EOSINOPHIL” value [2] of the same compound?
A: 0 CELLS/uL

Q: What about the “ABSOLUTE LYMPHOCYTE” value [2] of the same compound?
A: 10431 CELLS/uL

Q: What about the “ABSOLUTE MONOCYTE” value [2] of the same compound?
A: 90.5 CELLS/uL

Q: What about the “ABSOLUTE SEGMENTED NEUTROPHIL” value [2] of the same compound?
A: 1111.83 CELLS/uL

Q: And the BASOPHIL [2]?
A: 0%

Q: What about the EOSINOPHIL [2] of the same compound?
A: 0%

Q: What about the “ERYTHROCYTE COUNT” value [2] of the same compound?
A: 5.51 x10E6/uL

Q: And the HEMATOCRIT [2]?
A: 34.67%

Q: What about the HEMOGLOBIN [2] of the same compound?
A: 13.5 G/DL

Q: What about the “LEUKOCYTE COUNT” value [2] of the same compound?
A: 11.63 x10E3/uL

Q: What about the LYMPHOCYTE [2] of the same compound?
A: 89.67%

Q: And the “MEAN CORPUSCULAR HEMOGLOBIN” value [2]?
A: 24.5 pg

Q: What about the “MEAN CORPUSCULAR HEMOGLOBIN CONCENTRATION” value [2] of the same compound?
A: 38.95 G/DL

Q: And the “MEAN CORPUSCULAR VOLUME” value [2]?
A: 62.87 fL

Q: And the MONOCYTE [2]?
A: 0.67%

Q: And the NEUTROPHIL [2]?
A: 9.67%

Q: What about the “NUCLEATED RED BLOOD CELLS” value [2] of the same compound?
A: 0 /100WBC

Q: What about the “PLATELET COUNT” value [2] of the same compound?
A: 1052.67 x10E3/uL

Q: What about the “ALANINE AMINOTRANSFERASE” value [2] of the same compound?
A: 54.67 u/L

Q: What about the “ALKALINE PHOSPHATASE” value [2] of the same compound?
A: 359.83 u/L

Q: What about the “ASPARTATE AMINOTRANSFERASE” value [2] of the same compound?
A: 83 u/L

Q: And the “BLOOD UREA NITROGEN” value [2]?
A: 13.5 mg/dL

Q: What about the “CARBON DIOXIDE” value [2] of the same compound?
A: 27.17 mmol/L

Q: And the CHLORIDE [2]?
A: 98.5 MEQ/L

Q: What about the CHOLESTEROL [2] of the same compound?
A: 66.83 mg/dL

Q: What about the “CREATINE PHOSPHOKINASE” value [2] of the same compound?
A: 256.17 u/L

Q: What about the CREATININE [2] of the same compound?
A: 0.19 mg/dL

Q: What about the GLUCOSE [2] of the same compound?
A: 171.33 mg/dL

Q: What about the “LACTATE DEHYDROGENASE” value [2] of the same compound?
A: 91.5 u/L

Q: And the LIPASE [2]?
A: 10.5 u/L

Q: And the PHOSPHORUS [2]?
A: 8.72 mg/dL

Q: And the POTASSIUM [2]?
A: 5.34 MEQ/L

Q: And the SODIUM [2]?
A: 142.53 MEQ/L

Q: What about the “TOTAL BILIRUBIN” value [2] of the same compound?
A: 0.2 mg/dL

Q: What about the “TOTAL PROTEIN” value [2] of the same compound?
A: 6.05 G/DL

Q: What about the “URIC ACID” value [2] of the same compound?
A: 0.6 mg/dL

Q: What about the “ABSOLUTE BASOPHIL” value [3] of the same compound?
A: 0 CELLS/uL

Q: What about the “ABSOLUTE EOSINOPHIL” value [3] of the same compound?
A: 54.67 CELLS/uL

Q: And the “ABSOLUTE LYMPHOCYTE” value [3]?
A: 10865.33 CELLS/uL

Q: And the “ABSOLUTE MONOCYTE” value [3]?
A: 53.67 CELLS/uL

Q: What about the “ABSOLUTE SEGMENTED NEUTROPHIL” value [3] of the same compound?
A: 926.33 CELLS/uL

Q: And the BASOPHIL [3]?
A: 0%

Q: What about the EOSINOPHIL [3] of the same compound?
A: 0.67%

Q: And the “ERYTHROCYTE COUNT” value [3]?
A: 5.23 x10E6/uL

Q: And the HEMATOCRIT [3]?
A: 34.4%

Q: What about the HEMOGLOBIN [3] of the same compound?
A: 13.4 G/DL

Q: And the “LEUKOCYTE COUNT” value [3]?
A: 11.9 x10E3/uL

Q: And the LYMPHOCYTE [3]?
A: 91%

Q: What about the “MEAN CORPUSCULAR HEMOGLOBIN” value [3] of the same compound?
A: 25.6 pg

Q: What about the “MEAN CORPUSCULAR HEMOGLOBIN CONCENTRATION” value [3] of the same compound?
A: 39 G/DL

Q: And the “MEAN CORPUSCULAR VOLUME” value [3]?
A: 65.73 fL

Q: And the MONOCYTE [3]?
A: 0.33%

Q: And the NEUTROPHIL [3]?
A: 8%

Q: What about the “NUCLEATED RED BLOOD CELLS” value [3] of the same compound?
A: 0 /100WBC

Q: What about the “PLATELET COUNT” value [3] of the same compound?
A: 973 x10E3/uL

Q: And the “ALANINE AMINOTRANSFERASE” value [3]?
A: 62.67 u/L

Q: And the “ALKALINE PHOSPHATASE” value [3]?
A: 333.33 u/L

Q: What about the “ASPARTATE AMINOTRANSFERASE” value [3] of the same compound?
A: 94.33 u/L

Q: And the “BLOOD UREA NITROGEN” value [3]?
A: 11.67 mg/dL

Q: And the “CARBON DIOXIDE” value [3]?
A: 26.67 mmol/L

Q: What about the CHLORIDE [3] of the same compound?
A: 98 MEQ/L

Q: What about the CHOLESTEROL [3] of the same compound?
A: 63.67 mg/dL

Q: And the “CREATINE PHOSPHOKINASE” value [3]?
A: 272.33 u/L

Q: What about the CREATININE [3] of the same compound?
A: 0.28 mg/dL

Q: And the GLUCOSE [3]?
A: 138 mg/dL

Q: What about the “LACTATE DEHYDROGENASE” value [3] of the same compound?
A: 84 u/L

Q: And the LIPASE [3]?
A: 10.33 u/L

Q: And the PHOSPHORUS [3]?
A: 10.03 mg/dL

Q: What about the POTASSIUM [3] of the same compound?
A: 5.46 MEQ/L

Q: What about the SODIUM [3] of the same compound?
A: 142.1 MEQ/L

Q: And the “TOTAL BILIRUBIN” value [3]?
A: 0.17 mg/dL

Q: And the “TOTAL PROTEIN” value [3]?
A: 5.37 G/DL

Q: And the “URIC ACID” value [3]?
A: 0.57 mg/dL
